Here are results for 2 compounds from patent publication US10869846B2, “N-acetylcysteine amide (NAC amide) in the treatment of diseases and conditions associated with oxidative stress” (SENTIENT LIFESCIENCES, INC., priority 2005, dated 2020).

Several values for one entry are separate records, joined by “and”; a condition that tells them apart may be missing. Equal values may be shown once. Marks after values point to notes of the source that are not given here.

Assay [1] concerns PC12 cells. Description: Morphological assessment of glutamate toxicity. It is filed as cell-based. To be noted: 10 mM glutamate, 750 μM NAC amide, 24 hours. As for the experimental part:
Cell culture and toxicity studies: Stock culture of PC12 cells, purchased from ATCC, were grown in 75 cm^2 tissue culture flasks in RPMI 1640, supplemented with 10% (v/v) heat-inactivated horse serum, and 5% (v/v) fetal bovine serum, to which 1% (v/v) penicillin and streptomycin were added. Cultures were maintained at 37° C. in a humidified atmosphere containing 5% CO2. The cells were passaged twice a week. Unless specified, all of the experiments were performed using Dulbecco's modified Eagle's medium (DMEM) as differentiation medium, supplemented with 0.5% (v/v) fetal bovine serum, 1% (v/v) penicillin and streptomycin. PC12 cells were plated at a density of 25×10^3 cells/well in a 24-well, collagen-coated plate for morphological assessment. The plate was divided into five groups in triplicate: 1) control: no glutamate, no NAC amide; 2) Nerve Growth Factor (NGF) control: NGF (100 ng/ml), no glutamate, no NAC amide; 3) NAC amide only: NGF (100 ng/ml), no glutamate, NAC amide (750 μM); 4) glutamate only: NGF (100 ng/ml), glutamate (10 mM), no NAC amide; and 5) Glu+NAC amide: NGF (100 ng/ml), glutamate (10 mM), NAC amide (750 μM). […]
Glutamate toxicity was evaluated by 1) morphological assessment of PC12 cells in the presence of glutamate; 2) measuring the amount of LDH released in the media 24 h after glutamate exposure; and 3) measuring cell viability using the MTS assay. […]

Assay [2] has as its system PC12 cells. Description: MDA measurement in glutamate-exposed cells. It is filed as cell-based. Particulars: 24 h. As for the experimental part:
MDA measurement: To prepare the solution, 350 μl of straight cell homogenate, 100 μl of 500 ppm BHT (butylated hydroxytoluene), and 550 μl of 10% TCA (trichloroacetic acid) were combined and boiled for 30 min. The tubes were cooled on ice and centrifuged for 10 min at 2500 rpm. Five hundred (500) μl of the supernatant were removed and 500 μl of TBA (thiobarbituric acid) were added. The tubes were boiled again for 30 min, and then cooled on ice. From this solution, 500 μl were removed, added to 1.0 ml of n-butanol, vortexed, and centrifuged for 5 min at 60 g to facilitate a phase separation. The top layer was then filtered through 0.45 μm filters and injected onto a 5 μm C18 column (250×4.6 mm) on a reverse phase HPLC system. The mobile phase consisted of 69.4% 5 mM sodium phosphate buffer (pH=7.0), 30% acetonitrile, and 0.6% THF (tetrahydrofuran). The excitation wavelength was 515 nm; the emission wavelength was 550 nm (Draper H. H. et al., Free Radic Biol Med., 15(4):353-63, 1993).
Cells were plated and grown for 24 hours, and then they were exposed to glutamate (10 mM) in the presence or absence of NAC amide (750 μM). Twenty-four hours later, the cells were harvested and malondialdehyde levels were measured. Values represent means.+−.SD. Statistically different values of *P<0.002 and **P<0.05 were determined, compared to control. ***P<0.05 compared to glutamate-treated group.

For a further assay, the system named is mice. Description: GSH and cysteine levels after administration to mice. It is filed as in vivo. To be noted: 30 minutes after administration.
The subject of a further assay is Sprague Dawley rats. Description: Catalase activities in tissues after 6Gy total-body x-ray radiation. It is filed as in vivo, rat. Particulars: 500 mg/kg orally; for Catalase level: individual animals; for Catalase Mean: n = 3. On the procedure:
Animal studies: The irradiation of rats was performed at the Radiation Oncology Department of the Phelps County Regional Medical Center in Rolla, Mo., using a 16 MeV beam generated by a Varian linear accelerator, model Clinac 1800, and in accordance with the standards of humane laboratory animal protocols. A 20×20 or 25×25 cm field was used and output factors were checked once a week. Twelve animals were divided into 4 groups each containing 3 animals (Control, XRT, NAC amide+XRT and NAC+XRT). The radiation (XRT) control received whole body irradiation by 6 Gy of 16 MeV electrons. The NAC amide+XRT group received 500 mg/kg/day NAC amide immediately before irradiation and for three days after until sacrifice. The rats were anesthetized and heparinized blood was collected via cardiopuncture. Following sacrifice, liver, lung, brain and spleen were removed and stored at −70° C. until homogenization.
All experiments were performed using adult Albino SASCO Sprague Dawley female rats weighing about 250 g, which were purchased from Charles River Laboratories Inc. (Portage, Mich.). Twelve rats were shipped in paper crates (4 in each crate). Rats were delivered with a certificate including serological, bacteriological, pathological parasitological information. They were divided into 4 cages (3 rats in each cage) and kept in a temperature controlled (20° C.) room equipped to maintain a 12 h light-dark cycle. Standard rat chow (Purina rat chow) and tap water were supplied in individual glass bottle and given ad libitum. Water was changed daily. Weights of the animal were taken before giving the NAC amide treatment solution and amount of food eaten and water consumed was not measured because NAC amide was given orally but not in the drinking water or food.
NAC amide was provided by Novetide Ltd (Haifa Bay, Israel) including certificate of analysis and MSDS (lot #40233-64). NAC amide feeding solution was prepared freshly each day right before the administration by weighing 1.25 g NAC amide solid sample (Type HR-120 electronic balance, A&D Company limited, Japan. S/N: 12202464) and adding into 10 ml PBS solution and put on ice. One ml of this solution was administrated (gavaged) per rat orally by using animal feeding biomedical needles and 3 ml BD Luer-Lok Tip syringes. Rats received one-dose total-body 6 Gy/16 MeV x-ray radiation and 3 rats in each group were held in a covered bucket and received radiation at the same time. Each day at the same time, 500 mg/Kg body weight of NAC amide was administrated to the animals.
In assay solution, k(enzyme activity)= 1/60*ln(A0/A60)*(Total Volume of reaction/volume of sample) A0—Absorbance at 0 second A60—Absorbance at 60 second In sample, K(specific activity)=k/protein concentration.
Enzyme Activity Assays: Catalase (CAT) activity was determined spectrophotometrically and was expressed in kunits/mg protein and kunits/10^6 cells as described by M. Bradford, Anal. Biochem., 72:248-256 (1976).

As to N-acetylcysteine amide [NAC amide], the “protection from glutamate toxicity (neurite morphology, light microscopy)” value in the assay with PC12 cells [1] is given as “slightly decreasing the bleb formation on neurites”. In addition, the entries for the “MDA Levels” value in the assay on PC12 cells [2] (GLU (10 mM) + NAC amide (750 μM)) and in the assay on PC12 cells [2] (NAC amide (750 μM) alone) were 88 ± 11 nM/100 mg protein and 81 ± 22 nM/100 mg protein, respectively. Moreover, in the assay on mice, the “GSH and cysteine levels” value is “Increases”. In addition, the Catalase level is 69.63 mU/mg and 57.88 mU/mg and 50.33 mU/mg in the assay on Sprague Dawley rats (LIVER, listed as AD4, 500 mg/kg); 1.02 mU/mg and 0.53 mU/mg in the assay with Sprague Dawley rats (LUNG, listed as AD4, 500 mg/kg); 0.50 mU/mg with Sprague Dawley rats (LUNG, listed as ND4, 500 mg/kg). The “Catalase Mean” value in the assay on Sprague Dawley rats (LIVER) is given as 59.28** mU/mg; with Sprague Dawley rats (LUNG) it was 0.68** mU/mg.
Regarding `CC(=O)N[C@@H](CS)C(=O)O` [NAC, N-acetylcysteine], the Catalase level with Sprague Dawley rats (LIVER, 500 mg/kg) is 75.22 mU/mg and 69.09 mU/mg and 69.00 mU/mg; with Sprague Dawley rats (LUNG, 500 mg/kg), 2.12 mU/mg and 0.79 mU/mg and 0.48 mU/mg. Besides, the results for the “Catalase Mean” value in the assay on Sprague Dawley rats (LIVER) and in the assay on Sprague Dawley rats (LUNG) were 71.11*** mU/mg and 1.13 mU/mg, respectively.
